The text below walks through data of article PMC3020970, “K70Q Adds High-Level Tenofovir Resistance to “Q151M Complex” HIV Reverse Transcriptase through the Enhanced Discrimination Mechanism” (PLoS ONE, 2011).

What all share (experiment): Pre-steady state kinetics of binding and incorporation
Common to all, as to type: biochemical

The target of one assay is T1, HIV-1 RT K70Q/Q151Mc (Human immunodeficiency virus type 1 group M subtype B, UniProt P03366, A661V/F676L/F715Y/K669Q/Q750M/V674I).
T1 construct: made in house; host or cells: Escherichia coli BL21
As for the experimental part: (§1) Determination of active site concentrations in the different preparations of WT and mutant RTs were performed using pre-steady state burst experiments. […] The reactions were quenched at various times (10 ms to 5 s) by adding EDTA to a final concentration of 50 mM. The amounts of product (P18-dAMP) were quantitated and fit to the following burst equation: [drawing 1] (1) where A is the amplitude of the burst phase that represents the RT-DNA complex at the start of the reaction, k obs is the observed burst rate constant for dNTP incorporation, k ss is the steady state rate constant, and t is the reaction time. The rate constant of the linear phase (kcat) can be estimated by dividing the slope of the linear phase by the enzyme concentration. The active site concentration and template/primer binding affinity (KD-DNA) were determined by plotting the amplitude (A) against the concentration of template/primer. The data were fit using non-linear regression to a quadratic equation: [drawing 2] (2) where KD is the dissociation constant for the RT-DNA complex, and [RT] is the concentration of active polymerase molecules. Subsequent biochemical experiments were performed using corrected active site concentrations, [43].
(§2) HIV-1 RT (50 nM active sites) was pre-incubated with 50 nM T31/P18 in one syringe (Syringe A), whereas varying concentrations of dNTP and 10 mM MgCl2 were kept in another syringe (Syringe B). The solutions were rapidly mixed to initiate reactions, which were subsequently quenched at various times (5 ms to 10 s) by adding EDTA to a final concentration of 50 mM. The products from each quenched reaction were resolved, quantitated, and plotted as described above. The data were fit by non-linear regression to the burst equation (Eq 1).
(§3) To obtain the dissociation constant KD-dNTP for dNTP binding to the RT-DNA complex, the observed burst rates (kobs) were fit to the hyperbolic equation (Eq. 3) using nonlinear regression: [drawing 3] (3) where kpol is the optimal rate of dNTP incorporation.
(§4) The kinetics of TFV incorporation by the WT and mutant enzymes were carried out in a manner similar to that employed for natural dNTP substrate except the time of reactions. It was noted that the mutant enzymes required longer time to incorporate TFV compared to the WT HIV-1 RT (detailed in the Results section).

A further assay has as its target T2, HIV-1 RT WT (Human immunodeficiency virus type 1 group M subtype B, UniProt P03366).
T2 construct: made in house; host or cells: Escherichia coli BL21
As for the experimental part: as §1, §2, §3, §4

Another assay addresses T3, HIV-1 RT Q151Mc (Human immunodeficiency virus type 1 group M subtype B, UniProt P03366, A661V/F676L/F715Y/Q750M/V674I).
T3 construct: made in house; host or cells: Escherichia coli BL21
As for the experimental part: as §1, §2, §3, §4

Molecules are shown by their SMILES. Where “and” joins values, the source holds several entries; their conditions need not be identical. Equal values may be shown once.

For `CC(Cn1cnc2c(N)ncnc21)OCP(=O)(O)OP(=O)(O)OP(=O)(O)O` (stereo in doubt) [TFV-DP, tenofovir-diphosphate], the “Selectivity (k pol/Kd)dATP/(k pol/Kd)TFV-DP” value turned out to be 26.3 at HIV-1 RT K70Q/Q151Mc (K70Q/Q151Mc RT), 1.6 on HIV-1 RT WT and 11 at HIV-1 RT Q151Mc. Moreover, the “k pol/Kd” value at HIV-1 RT K70Q/Q151Mc (K70Q/Q151Mc RT) is 0.11 µM⁻¹ s⁻¹ and 0.11 ± 0.03 µM⁻¹ s⁻¹; at HIV-1 RT WT it was 1.47 µM⁻¹ s⁻¹ and 1.47 ± 0.07 µM⁻¹ s⁻¹; on HIV-1 RT Q151Mc, 0.3 µM⁻¹ s⁻¹ and 0.3 ± 0.06 µM⁻¹ s⁻¹. Moreover, the “Reduced affinity for TFV than the WT enzyme” value on HIV-1 RT K70Q/Q151Mc (K70Q/Q151Mc RT vs WT RT) is recorded as “more than 4.5 fold”. For the same compound, the k pol on HIV-1 RT K70Q/Q151Mc (K70Q/Q151Mc RT, T31/P18, 37°C) was 1.0 ± 0.03 s⁻¹; on HIV-1 RT WT (T31/P18, 37°C), 2.8 s⁻¹ and 2.8 ± 0.08 s⁻¹; at HIV-1 RT Q151Mc (T31/P18, 37°C) it was 1.3 ± 0.03 s⁻¹. Moreover, the Kd at HIV-1 RT K70Q/Q151Mc (K70Q/Q151Mc RT, binding to RT-DNA complex) was 8.9 ± 2.1 µM; on HIV-1 RT WT (binding to RT-DNA complex) it was 1900 ± 200 nM; on HIV-1 RT Q151Mc (binding to RT-DNA complex) it was 4.3 ± 0.8 µM.
